According to patent US12369583B2, “Nematicidal compositions” (SYNGENTA CROP PROTECTION AG, priority 2018, dated 2025):

Key:
[1] = test system: Soybean Cyst Nematode (Heterodera glycines) eggs; experiment: Evaluation of Soybean Cyst Nematode egg hatch; type: cell-based
[2] = test system: Soybean Cyst Nematode (Heterodera glycines); experiment: Control of Heterodera glycines on soybean in a greenhouse, seed treatment; type: in vivo
Excerpt: Methodology for evaluating control of Heterodera glycines at all life stages on soybean in a greenhouse.
Five thousand Heterodera glycine eggs where placed in a 1 inch hole in the center of 3.5 inch×8 inch deep plastic pots. The seeds were inoculated first when applying the active compound as a seed treatment. The treated seed was placed in the center hole and covered up with sterilized top soil. Each pot was watered by hand, with approximately 50 mls of water applied to each pot once per day. 35 day after planting, the soil was gently rinsed from the roots of the emerged plants and place in a 20 mesh over a 60-mesh sieve. The root system was blasted with water to remove mature females. The 20-mesh sieve removed. The females were washed to the bottom of the 60-mesh sieve and rinsed into a tube for counting under a stereoscope. For root penetration experiments, the roots of the plants were removed from the pots at 7-14 days after planting, rinsed clean of soil, and stained with acid fuchsin stain. Stained nematodes in the roots were counted using an electronic stereoscope.
The action of pydiflumetofen against soybean syst nematode (SCN; Heterodera glycines) and its effect on soybean plants was assessed out as described previously, and compared to that of fluopyram. The number of SCN per stained root was counted, and the mean root weight per plant calculated, thus enabling the number of SCN per gram of root to be calculated.

[3] = test system: Reniform Nematode (Rotylenchulus reniformis); experiment: Reniform Nematode efficacy on soybean, soil nematode count compared to check; type: in vivo
[4] = test system: Root Knot Nematode (Meloidogyne incognita) eggs; experiment: Evaluation of Root Knot Nematode egg hatch; type: cell-based
[5] = test system: Soybean Cyst Nematode (Heterodera glycines) on Soybean; experiment: Soybean yield data, seed treatment (trials 4-6); type: in vivo
[6] = test system: Lesion Nematode (Pratylenchus Spp.); experiment: Lesion Nematode control in corn, stained root tissue; type: in vivo
Excerpt: Corn root tissue was stained using acid fuchsin/methyl blue to assess for endoparasitic, endo/ectoparasitic, and semi endoparasitic nematodes that have entered the root system, using standard methodology. The effect of pydiflumetofen was compared to fluopyram.

[7] = test system: Sting (Belonolaimus longicaudatus); experiment: In vitro dose response assay against Sting nematode; type: cell-based
Excerpt: (§1) Lance (Hoplolaimus Spp.) and Sting (Belonolaimus longicaudatus) Nematode In Vitro Assay Measuring Dose Response of APN Against Sting and Lance Nematode.

Lance (Hoplolaimus Spp.) = experiment: In vitro dose response assay against Lance nematode; type: cell-based
Excerpt: as §1

[8] = test system: Spiral (Helicotylenchus Spp.); experiment: Multiple nematode species on cotton, soil counts: Spiral; type: in vivo; details: 0.15 mg ai/seed, measured 71 days after planting
[9] = test system: Root Knot Nematode (Meloidogyne incognita); experiment: Root Knot Nematode control on soybean, gall count and rating; type: in vivo
Excerpt: Root Knot Nematode (Meloidogyne incognita) Methodology for Evaluating Root Knot Nematode Gall Count and Rating Process The roots of the plants were removed from the soil. The root system was then sprayed with water to remove remaining soil. The roots were spread out on a tray or counter top and the rate of galling or place each root system under a magnification light and count galls. For gall assessment ratings, a rating on a scale of 0-10 scale was given when compared against a standard gall rating chart. Gall count was also assessed.

[10] = test system: Root Knot (Meloidogyne incognita); experiment: Multiple nematode species on cotton, soil counts: Root Knot; type: in vivo; details: 0.15 mg ai/seed, measured 71 days after planting
[11] = test system: Lesion Nematode (Pratylenchus brachyurus); experiment: Lesion Nematode efficacy on soybean, stained roots; type: in vivo
Excerpt: Soybean plant roots were stained using acid fuchsin/methyl blue to assess for endoparasitic, endo/ectoparasitic, and semi endoparasitic nematodes that have entered the root system, using standard methodology.

[12] = test system: Reniform Nematode (Rotylenchulus reniformis); experiment: Multiple nematode species on cotton, soil counts: Reniform; type: in vivo; details: 0.15 mg ai/seed, measured 71 days after planting
[13] = Series 2 Trial 1, 0.075 mg ai/seed
[14] = Series 2 Trial 1, 0.15 mg ai/seed
[15] = Series 2 Trial 1, 0.30 mg ai/seed
[16] = Series 1 Trial 1, 0.0375 mg ai/seed
[17] = Series 1 Trial 1, 0.075 mg ai/seed
[18] = Series 1 Trial 1, 0.15 mg ai/seed
[19] = Series 1 Trial 2, 0.075 mg ai/seed
[20] = Series 1 Trial 2, 0.15 mg ai/seed
[21] = Sodium hypochlorite 30%, no ppm concentration printed

## O=C(NCCc1ncc(C(F)(F)F)cc1Cl)c1ccccc1C(F)(F)F [Fluopyram, reference compound]
[1]; 1 ppm
  Percent Egg Hatch Reduction: −1.3%
[1]; 10 ppm
  Percent Egg Hatch Reduction: 4.5%
[1]; 100 ppm
  Percent Egg Hatch Reduction: 61.9%
[2]; [13]
  Mean SCN/root: 20.8
  No. SCN/g root tissue: 12.1
[2]; [14]
  Mean SCN/root: 17.7
  No. SCN/g root tissue: 30.3
[2]; [15]
  Mean SCN/root: 7.3
  No. SCN/g root tissue: 23.4
[3]; 0.15 mg/seed
  Nematode Reduction Compared to Check (mean difference in soil nematode count): −3146
[4]; 1 ppm
  Percent Egg Hatch Reduction: 1.1%
[4]; 10 ppm
  Percent Egg Hatch Reduction: 55.9%
[4]; 100 ppm
  Percent Egg Hatch Reduction: 54.7%
[5]; Trial 4, 0.15 mg ai/seed
  Mean Difference in Yield Compared to Checks: −3.5 Bu/Ac
[5]; Trial 5, 0.15 mg ai/seed
  Mean Difference in Yield Compared to Checks: +5.4 Bu/Ac
[5]; Trial 6, 0.15 mg ai/seed
  Mean Difference in Yield Compared to Checks: +2.9 Bu/Ac
[6]; 0.25 mg ai/seed
  Lesion Nematode per gram of Root: 211
  Lesion Nematodes within root system: 108

## CON(C(=O)c1cn(C)nc1C(F)F)C(C)Cc1c(Cl)cc(Cl)cc1Cl (centres unmarked) [Pydiflumetofen, 3-(difluoromethyl)-N-methoxy-1-methyl-N-[1-methyl-2-(2,4,6-trichloro-phenyl)ethyl]-1H-pyrazole-4-carboxamide]
[1]; 1 ppm
  Percent Egg Hatch Reduction: 4.7%
[1]; 10 ppm
  Percent Egg Hatch Reduction: 34.7%
[1]; 100 ppm
  Percent Egg Hatch Reduction: 64.0%
[7]; exposure 1 hours, 0.1 ppm
  Percentage of Dead Nematodes: 6.3 Percentage
[7]; exposure 1 hours, 10 ppm
  Percentage of Dead Nematodes: 5.9 Percentage
[7]; exposure 1 hours, 100 ppm
  Percentage of Dead Nematodes: 11.3 Percentage
[7]; exposure 24 hours, 0.1 ppm
  Percentage of Dead Nematodes: 4.7 Percentage
[7]; exposure 24 hours, 10 ppm
  Percentage of Dead Nematodes: 59.5 Percentage
[7]; exposure 24 hours, 100 ppm
  Percentage of Dead Nematodes: 42.9 Percentage
[7]; exposure 48 hours, 0.1 ppm
  Percentage of Dead Nematodes: 29.3 Percentage
[7]; exposure 48 hours, 10 ppm
  Percentage of Dead Nematodes: 56.3 Percentage
[7]; exposure 48 hours, 100 ppm
  Percentage of Dead Nematodes: 58 Percentage
[7]; exposure 72 hours, 0.1 ppm
  Percentage of Dead Nematodes: 34.9 Percentage
[7]; exposure 72 hours, 10 ppm
  Percentage of Dead Nematodes: 81.1 Percentage
[7]; exposure 72 hours, 100 ppm
  Percentage of Dead Nematodes: 97.1 Percentage
Lance (Hoplolaimus Spp.); exposure 1 hours, 0.1 ppm
  Percentage of Dead Nematodes: 12.7 Percentage
Lance (Hoplolaimus Spp.); exposure 1 hours, 10 ppm
  Percentage of Dead Nematodes: 37.9 Percentage
Lance (Hoplolaimus Spp.); exposure 1 hours, 100 ppm
  Percentage of Dead Nematodes: 74.8 Percentage
Lance (Hoplolaimus Spp.); exposure 24 hours, 0.1 ppm
  Percentage of Dead Nematodes: 68.5 Percentage
Lance (Hoplolaimus Spp.); exposure 24 hours, 10 ppm
  Percentage of Dead Nematodes: 81.6 Percentage
Lance (Hoplolaimus Spp.); exposure 24 hours, 100 ppm
  Percentage of Dead Nematodes: 23.9 Percentage
Lance (Hoplolaimus Spp.); exposure 48 hours, 0.1 ppm
  Percentage of Dead Nematodes: 41 d Percentage
Lance (Hoplolaimus Spp.); exposure 48 hours, 10 ppm
  Percentage of Dead Nematodes: 93.8 Percentage
Lance (Hoplolaimus Spp.); exposure 48 hours, 100 ppm
  Percentage of Dead Nematodes: 74.8 Percentage
Lance (Hoplolaimus Spp.); exposure 72 hours, 0.1 ppm
  Percentage of Dead Nematodes: 32.9 Percentage
Lance (Hoplolaimus Spp.); exposure 72 hours, 10 ppm
  Percentage of Dead Nematodes: 93.8 Percentage
Lance (Hoplolaimus Spp.); exposure 72 hours, 100 ppm
  Percentage of Dead Nematodes: 77.5 Percentage
[8]
  Juveniles per 100 cc s Soil: 254
[2]; [16]
  Cysts per Gram of Root: 147.9
  Mature SCN Cysts: 24.0
  Stained Juveniles w/l root: 22.5
[2]; [17]
  Cysts per Gram of Root: 167.5
  Mature SCN Cysts: 21.3
  Stained Juveniles w/l root: 19.0
[2]; [18]
  Cysts per Gram of Root: 105.0
  Mature SCN Cysts: 16.3
  Stained Juveniles w/l root: 12.5
[2]; [19]
  SCN Within Root: 17.5
  Soybean Cyst Nematodes per Gram of Root: 128
[2]; [20]
  SCN Within Root: 5.0
  Soybean Cyst Nematodes per Gram of Root: 29.6
[2]; Series 1 Trial 3, 0.15 mg ai/seed
  SCN Cysts per Root: 10.4
[2]; Series 1 Trial 3, 0.30 mg ai/seed
  SCN Cysts per Root: 5.5
[2]; [13]
  Mean SCN/root: 52.3
  No. SCN/g root tissue: 30.4
[2]; [14]
  Mean SCN/root: 37.0
  No. SCN/g root tissue: 16.9
[2]; [15]
  Mean SCN/root: 35.2
  No. SCN/g root tissue: 15.2
[3]; 0.075 mg/seed
  Nematode Reduction Compared to Check (mean difference in soil nematode count): −2912
[9]; 0.075 mg ai/seed
  Root Knot Nematode Galling (0-10 scale): 6.8
  Root Knot Nematode Galls per Root: 52.6
[9]; 0.15 mg ai/seed
  Root Knot Nematode Galling (0-10 scale): 1.5
  Root Knot Nematode Galls per Root: 11.2
[10]
  Juveniles per 100 cc s Soil: 132
[4]; 1 ppm
  Percent Egg Hatch Reduction: 1.7%
[4]; 10 ppm
  Percent Egg Hatch Reduction: 12.8%
[4]; 100 ppm
  Percent Egg Hatch Reduction: 30.6%
[11]; 0.0375 mg ai/seed
  Lesion Nematode per gram of Root: 164.3
  Lesion Nematodes w/l root: 44.9
[11]; 0.075 mg ai/seed
  Lesion Nematode per gram of Root: 141.5
  Lesion Nematodes w/l root: 38.3
[11]; 0.15 mg ai/seed
  Lesion Nematode per gram of Root: 105.3
  Lesion Nematodes w/l root: 32.3
[12]; Reniform (adult)
  Juveniles per 100 cc s Soil: 2.8
[12]; Reniform (juvenile)
  Juveniles per 100 cc s Soil: 1752
[5]; Trial 4, 0.075 mg ai/seed
  Mean Difference in Yield Compared to Checks: +3.0 Bu/Ac
[5]; Trial 5, 0.075 mg ai/seed
  Mean Difference in Yield Compared to Checks: +3.7 Bu/Ac
[5]; Trial 6, 0.075 mg ai/seed
  Mean Difference in Yield Compared to Checks: +7.5 Bu/Ac
[6]
  Effect on nematode numbers (in words): reduce nematode numbers
[6]; 0.4 mg ai/seed
  Lesion Nematode per gram of Root: 389
  Lesion Nematodes within root system: 302
[6]; 0.5 mg ai/seed
  Lesion Nematode per gram of Root: 105
  Lesion Nematodes within root system: 124

## CNC(=O)O/N=C/C(C)(C)SC [Aldicarb]
[3]; in-furrow (5.6 Kg/Ha)
  Nematode Reduction Compared to Check (mean difference in soil nematode count): −1937

## OCl [Sodium hypochlorite 30%, Sodium hypochlorite]
[1]; [21]
  Percent Egg Hatch Reduction: 100.0%
[4]; [21]
  Percent Egg Hatch Reduction: 100.0%

## c1ccc(-c2noc(-c3cccs3)n2)cc1 [Tioxazafen]
[1]; 1 ppm
  Percent Egg Hatch Reduction: 0.4%
[1]; 10 ppm
  Percent Egg Hatch Reduction: −0.5%
[1]; 100 ppm
  Percent Egg Hatch Reduction: −0.9%
[4]; 1 ppm
  Percent Egg Hatch Reduction: −1.9%
[4]; 10 ppm
  Percent Egg Hatch Reduction: −0.8%
[4]; 100 ppm
  Percent Egg Hatch Reduction: 4.4%

## O=S(=O)(CCC(F)=C(F)F)c1ncc(Cl)s1 [Fluensulfone]
[1]; 1 ppm
  Percent Egg Hatch Reduction: −2.1%
[1]; 10 ppm
  Percent Egg Hatch Reduction: −1.5%
[1]; 100 ppm
  Percent Egg Hatch Reduction: 0.5%
[4]; 1 ppm
  Percent Egg Hatch Reduction: −3.5%
[4]; 10 ppm
  Percent Egg Hatch Reduction: −0.9%
[4]; 100 ppm
  Percent Egg Hatch Reduction: 48.8%
